≈ marks a conversion by molar mass, not a printed value. Read-outs that look alike come from different tables or passages of the source.
Assays:
Assay type in all cases: cell-based
Streptococcus pneumoniae [1] = experiment: MIC by broth microdilution (NCCLS), dried MicroScan panels, clinical isolates 1998-1999; details: Streptococcus pneumoniae
Streptococcus pneumoniae [2] = experiment: MIC by two-fold serial agar dilution, Sensitivity Disk agar-N (Kitasato isolates); details: for MIC90 / MIC / MIC50: Streptococcus pneumoniae; for MIC90: read-out: MIC90; for MIC: read-out: MIC Range; for MIC50: read-out: MIC50
[3] = system: Staphylococcus epidermidis; experiment: MIC by NCCLS broth microdilution, 1100 Japanese clinical isolates 1997-1998; details: for MIC50 / MIC90: Staphylococcus epidermidis
Streptococcus pneumoniae [4] = experiment: as above; details: for MIC50 / MIC90 / MIC: Streptococcus pneumoniae; for MIC50: read-out: MIC50; for MIC90: read-out: MIC90; for MIC: Streptococcus pneumoniae quinolone resistant
Enterococcus gallinarum = experiment: as above
Enterobacter aerogenes = experiment: as above; details: Enterobacter aerogenes (n=35)
Shigella spp. = experiment: as above; details: Shigella spp. (n=34)
Proteus mirabilis = experiment: MIC by agar dilution (NCCLS), 322 nosocomial Gram negative isolates, Athens 1998; details: Proteus mirabilis; n = 57 isolates
Enterococcus faecalis = experiment: MIC by agar macrodilution (NCCLS), 373 Gram positive isolates, Athens 1998
[5] = Staphylococcus epidermidis oxacillin resistant (n=43)
[6] = Staphylococcus epidermidis oxacillin susceptible (n=35)
[7] = Streptococcus pneumoniae amoxicillin resistant (n=40)
[8] = Streptococcus pneumoniae amoxicillin susceptible (n=35)
[9] = Streptococcus pneumoniae erythromycin resistant (n=34)
[10] = Streptococcus pneumoniae erythromycin susceptible (n=11)

CO/N=C1\CN(c2nc3c(cc2F)c(=O)c(C(=O)O)cn3C2CC2)CC1CN (racemic) [Gemifloxacin, (R,S)-7-(3-aminomethyl-4-methoxyiminopyrrolidin-1-yl)-1-cyclopropyl-6-fluoro-4-oxo-1,4-dihydro-1,8-naphthyridine-3-carboxylic acid]
MIC90 (Streptococcus pneumoniae [1]; Penicillin-intermediate (124)): 0.03 µg/mL (≈ 0.077 µM) | MIC90 (Streptococcus pneumoniae [1]; Penicillin-resistant (80)): 0.06 µg/mL (≈ 0.154 µM) | MIC90 (Streptococcus pneumoniae [1]; Penicillin-sensitive (98)): 0.06 µg/mL (≈ 0.154 µM) | MIC90 (Streptococcus pneumoniae [1]; Streptococcus pneumoniae (302 isolates)): 0.06 µg/mL (≈ 0.154 µM) | more potent than sparfloxacin (Streptococcus pneumoniae [2]; S. pneumoniae, by MIC90): 8 fold | more potent than trovafloxacin (Streptococcus pneumoniae [2]; S. pneumoniae, by MIC90): 4 fold | MIC90 (Streptococcus pneumoniae [2]; 18 h, Ciprofloxacin-resistant (21), ciprofloxacin MIC ≥8 µg/ml): 0.5 µg/mL (≈ 1.28 µM) | MIC (Streptococcus pneumoniae [2]; 18 h, Ciprofloxacin-resistant (21)): 0.063 to 0.5 µg/mL (≈ 0.162 to 1.28 µM) | MIC (Streptococcus pneumoniae [2]; 18 h, Ciprofloxacin-susceptible (94)): 0.008 to 0.063 µg/mL (≈ 0.0205 to 0.162 µM) | MIC (Streptococcus pneumoniae [2]; 18 h, Erythromycin-resistant (37)): 0.016 to 0.5 µg/mL (≈ 0.0411 to 1.28 µM) | MIC (Streptococcus pneumoniae [2]; 18 h, Minocycline-resistant (37)): 0.016 to 0.5 µg/mL (≈ 0.0411 to 1.28 µM) | MIC (Streptococcus pneumoniae [2]; 18 h, Penicillin-resistant (19)): 0.016 to 0.063 µg/mL (≈ 0.0411 to 0.162 µM) | MIC50 (Streptococcus pneumoniae [2]; Ciprofloxacin-resistant (21)): 0.25 µg/mL (≈ 0.642 µM) | MIC50 (Streptococcus pneumoniae [2]; Ciprofloxacin-susceptible (94)): 0.031 µg/mL (≈ 0.0796 µM) | MIC90 (Streptococcus pneumoniae [2]; Ciprofloxacin-susceptible (94)): 0.031 µg/mL (≈ 0.0796 µM) | MIC50 (Streptococcus pneumoniae [2]; Erythromycin-resistant (37)): 0.031 µg/mL (≈ 0.0796 µM) | MIC90 (Streptococcus pneumoniae [2]; Erythromycin-resistant (37)): 0.063 µg/mL (≈ 0.162 µM) | MIC50 (Streptococcus pneumoniae [2]; Minocycline-resistant (37)): 0.031 µg/mL (≈ 0.0796 µM) | MIC90 (Streptococcus pneumoniae [2]; Minocycline-resistant (37)): 0.063 µg/mL (≈ 0.162 µM) | MIC50 (Streptococcus pneumoniae [2]; Penicillin-resistant (19)): 0.016 µg/mL (≈ 0.0411 µM) | MIC90 (Streptococcus pneumoniae [2]; Penicillin-resistant (19)): 0.063 µg/mL (≈ 0.162 µM) | MIC Range [3, 5]: 0.032 to 4 µg/mL | MIC Range [3, 6]: ≤0.008 to 2 µg/mL | MIC50 [3, 5]: 0.5 µg/mL (≈ 1.28 µM) | MIC90 [3, 5]: 2 µg/mL (≈ 5.14 µM) | MIC50 [3, 6]: 0.032 µg/mL (≈ 0.0822 µM) | MIC90 [3, 6]: 0.5 µg/mL (≈ 1.28 µM) | MIC Range (Streptococcus pneumoniae [4]; [7]): 0.016 to 0.125 µg/mL | MIC Range (Streptococcus pneumoniae [4]; [8]): ≤0.008 to 0.125 µg/mL | MIC Range (Streptococcus pneumoniae [4]; [9]): ≤0.008 to 0.125 µg/mL | MIC Range (Streptococcus pneumoniae [4]; [10]): 0.016 to 0.032 µg/mL | MIC50 (Streptococcus pneumoniae [4]; [7]): 0.032 µg/mL (≈ 0.0822 µM) | MIC90 (Streptococcus pneumoniae [4]; [7]): 0.032 µg/mL (≈ 0.0822 µM) | MIC50 (Streptococcus pneumoniae [4]; [8]): 0.016 µg/mL (≈ 0.0411 µM) | MIC90 (Streptococcus pneumoniae [4]; [8]): 0.032 µg/mL (≈ 0.0822 µM) | MIC50 (Streptococcus pneumoniae [4]; [9]): 0.016 µg/mL (≈ 0.0411 µM) | MIC90 (Streptococcus pneumoniae [4]; [9]): 0.032 µg/mL (≈ 0.0822 µM) | MIC50 (Streptococcus pneumoniae [4]; [10]): 0.032 µg/mL (≈ 0.0822 µM) | MIC90 (Streptococcus pneumoniae [4]; [10]): 0.032 µg/mL (≈ 0.0822 µM) | MIC (Streptococcus pneumoniae [4]; strain TMS1): 0.032 µg/mL (≈ 0.0822 µM) | MIC (Streptococcus pneumoniae [4]; strain TMS2): 0.5 µg/mL (≈ 1.28 µM) | activity higher than that of the other quinolones (Streptococcus pneumoniae [4]; quinolone-resistant S. pneumoniae): 2-128 fold | MIC (Enterococcus gallinarum; Enterococcus gallinarum (vanC1), strain TMS3): 0.125 µg/mL (≈ 0.321 µM) | MIC (Enterococcus gallinarum; Enterococcus gallinarum, GALLINARUM): 0.125 µg/mL (≈ 0.321 µM) | MIC (Enterococcus gallinarum; Enterococcus gallinarum, GALLINARUM, Enterococcus gallinarum (vanC1), strain TMS1, read-out: MIC): 0.032 µg/mL (≈ 0.0822 µM) | MIC (Enterococcus gallinarum; Enterococcus gallinarum, GALLINARUM, Enterococcus gallinarum (vanC1), strain TMS4, read-out: MIC): 0.032 µg/mL (≈ 0.0822 µM) | MIC Range (Enterobacter aerogenes): 0.016 to 0.25 µg/mL | MIC50 (Enterobacter aerogenes; Klebsiella aerogenes): 0.032 µg/mL (≈ 0.0822 µM) | MIC90 (Enterobacter aerogenes; Klebsiella aerogenes): 0.063 µg/mL (≈ 0.162 µM) | MIC50 (Shigella spp.): ≤ 0.008 µg/mL | MIC90 (Shigella spp.): 0.032 µg/mL (≈ 0.0822 µM) | MIC Range (Shigella spp.): ≤0.008 to 0.032 µg/mL | MIC50 (Proteus mirabilis): 0.25 µg/mL (≈ 0.642 µM) | MIC90 (Proteus mirabilis): 16 µg/mL (≈ 41.1 µM) | MIC distribution (µg/ml) 0.03 (Enterococcus faecalis): 2 | MIC distribution (µg/ml) 0.06 (Enterococcus faecalis): 2 | MIC distribution (µg/ml) 0.125 (Enterococcus faecalis): 24 | MIC distribution (µg/ml) 0.25 (Enterococcus faecalis): 22 | MIC distribution (µg/ml) 1 (Enterococcus faecalis): 2 | MIC distribution (µg/ml) 2 (Enterococcus faecalis): 1 | MIC distribution (µg/ml) 4 (Enterococcus faecalis): 5 | MIC distribution (µg/ml) 8 (Enterococcus faecalis): 9 | MIC distribution (µg/ml) 16 (Enterococcus faecalis): 5 | MIC distribution (µg/ml) ≤0.015 (Enterococcus faecalis): 0 | MIC distribution (µg/ml) ≥32 (Enterococcus faecalis): 4 | MIC50 (Enterococcus faecalis; Enterococcus faecalis, n = 81 isolates, read-out: MIC50): 0.25 µg/mL (≈ 0.642 µM) | MIC90 (Enterococcus faecalis; Enterococcus faecalis, n = 81 isolates, read-out: MIC90): 16 µg/mL (≈ 41.1 µM) | MIC distribution (µg/ml) 0.5 (Enterococcus faecalis; number of isolates at MIC 0.5 µg/ml, n = 81): 5

Source: EP1561465A2, “Methods of use of fluoroquinolone compounds against bacteria” (LG Life Sciences, Ltd., priority 1999, dated 2001)
